Experimental data as given in patent US20110045101A1, “FUNGICIDAL SUBSTITUTED AZOLES” (E.I. Du Pont De Nemours and Company, priority 2009, published 2011).
Marks after values point to notes of the source that are not given here.

Legend:
Assay type in all cases: in vivo
[1] = test system: Botrytis cinerea; assay: Test C: tomato Botrytis on tomato seedlings, sprayed the day before inoculation, visual disease rating; conditions: 100 = 100% disease control; for pest or weed control at 200 ppm: Botrytis cinerea, 120 h
Procedure, shortened: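 Tomato seedlings were sprayed until run-off with test suspensions in acetone/water (50/50) carrying 250 ppm polyhydric alcohol ester surfactant. Standard dose was 200 ppm, with 40 ppm for marked entries.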

[2] = test system: Alternaria solani; assay: Test D: tomato early blight, sprayed the day before inoculation, visual disease rating; conditions: 100 = 100% disease control; for pest or weed control at 200 ppm: Alternaria solani, 168 h
Procedure, shortened: (§1)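 200 ppm run-off spray (500 g/ha equivalent); * = 40 ppm. Vehicle: acetone/water 50/50, 250 ppm Trem® 014.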

[3] = test system: Septoria nodorum; assay: Test F: wheat glume blotch on wheat seedlings, sprayed the day before inoculation, visual disease rating; conditions: 100 = 100% disease control; for pest or weed control at 200 ppm: Parastagonospora nodorum, 264 h
Procedure, shortened: as §1

[4] = test system: Septoria tritici; assay: Test G: wheat leaf blotch on wheat seedlings, sprayed the day before inoculation, visual disease rating; conditions: 100 = 100% disease control; for pest or weed control at 200 ppm: Zymoseptoria tritici, 504 h
Procedure, shortened: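 Wheat seedlings were sprayed to run-off with test suspension (acetone/water plus surfactant), generally 200 ppm (≈500 g/ha), or 40 ppm where marked. Septoria tritici spores were inoculated the next day; plants were held 48 h at 24°C in saturated atmosphere, then 19 days at 20°C before visual disease rating.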

[5] = test system: Puccinia recondita f. sp. tritici; assay: Test H: wheat leaf rust, test suspension sprayed after inoculation of wheat seedlings, visual disease rating; conditions: 100 = 100% disease control; for pest or weed control at 200 ppm: Puccinia recondita, 96 h
Procedure, shortened: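 Wheat seedlings inoculated with P. recondita spores, held 24 h saturated at 20 °C, then 2 days in growth chamber at 20 °C; compound suspension (acetone/water with Trem 014) sprayed to run-off afterwards. Rated visually; 200 ppm (≈500 g/ha) unless marked *, which denotes 40 ppm.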

[6] = test system: Puccinia recondita f. sp. tritici; assay: Test I: wheat leaf rust on wheat seedlings, sprayed the day before inoculation, visual disease rating; conditions: 100 = 100% disease control; for pest or weed control at 200 ppm: Puccinia recondita, 168 h
Procedure, shortened: as §1

[7] = test system: Erysiphe graminis f. sp. tritici; assay: Test J: wheat powdery mildew on wheat seedlings, sprayed the day before inoculation, visual disease rating; conditions: 100 = 100% disease control; for pest or weed control at 200 ppm: Blumeria graminis, 168 h
Procedure, shortened: as §1

[8] = 200 ppm, 0 = no control relative to controls
[9] = 40 ppm (marked *), 0 = no control

Structure (SMILES)	Test C disease control rating [1, 8]	Test D disease control rating [2, 8]	Test F disease control rating [3, 8]	Test G disease control rating [4, 8]	Test H disease control rating [5, 8]	Test I disease control rating [6, 8]	Test J disease control rating [7, 8]	also measured
Fc1cc(-n2c(Cl)nc(Cl)c2-c2ccc(Br)cn2)ccc1Cl [compound 487]	96%	0%	0%	88%	0%	78%	0%	–
C=Cc1nc(Cl)c(-c2c(F)ccc(OC)c2F)n1-c1cccc(OC(F)F)c1 [Compound 583, 4-chloro-1-[3-(difluoromethoxy)phenyl]-5-(2,6-difluoro-3-methoxyphenyl)-2-ethenyl-1H-imidazole]	–	–	–	–	–	–	–	pest or weed control at 200 ppm [1, 8]: 99%; pest or weed control at 200 ppm [2, 8]: 97%; pest or weed control at 200 ppm [3, 8]: 0%; pest or weed control at 200 ppm [4, 8]: 94%; pest or weed control at 200 ppm [5, 8]: 0%; pest or weed control at 200 ppm [6, 8]: 85%; pest or weed control at 200 ppm [7, 8]: 83%
Cc1nc(Cl)n(-c2ccc(F)cc2Cl)c1-c1ccc(Cl)c(F)c1 [compound 573]	100%	100%	0%	96%	22%	100%	99%	–
Cc1nc(C)n(-c2ccc(Cl)cc2)c1-c1c(F)ccc(F)c1F [compound 416]	–	–	–	–	–	–	–	Test C disease control rating [1, 9]: 100* %; Test D disease control rating [2, 9]: 100* %; Test F disease control rating [3, 9]: 0* %; Test G disease control rating [4, 9]: 97* %; Test H disease control rating [5, 9]: 0* %; Test I disease control rating [6, 9]: 26* %; Test J disease control rating [7, 9]: 99* %
COc1cc(OC)cc(-n2c(C)nc(Br)c2Cc2c(F)cc(F)cc2F)c1 [compound 535]	0%	0%	0%	2%	0%	0%	0%	–
Fc1cc(-n2c(Cl)nc(Cl)c2-c2cccc(Br)n2)ccc1Cl [compound 433]	50%	0%	0%	92%	0%	0%	0%	–
Cc1nc(Cl)c(-c2ccc(Cl)cc2)n1-c1c(F)cc([N+](=O)[O-])cc1F [compound 708]	100%	0%	82%	99%	7%	80%	89%	–
CNC(=O)Cc1nc(Br)c(-c2c(F)cccc2F)n1-c1ccc(Cl)cc1 [Compound 571, 4-bromo-1-(4-chlorophenyl)-5-(2,6-difluorophenyl)-N-methyl-1H-imidazole-2-acetamide]	–	–	–	–	–	–	–	pest or weed control at 200 ppm [1, 8]: 33%; pest or weed control at 200 ppm [2, 8]: 0%; pest or weed control at 200 ppm [3, 8]: 0%; pest or weed control at 200 ppm [4, 8]: 82%; pest or weed control at 200 ppm [5, 8]: 0%; pest or weed control at 200 ppm [6, 8]: 90%; pest or weed control at 200 ppm [7, 8]: 0%
COc1cc(F)c(-c2c(Cl)nc(Br)n2Cc2ccc(C)cc2)c(F)c1 [compound 292]	–	–	–	–	–	–	–	Test C disease control rating ([1]; 200 ppm, 0 = no control): 99%; Test D disease control rating ([2]; 200 ppm, 0 = no control): 98%; Test F disease control rating ([3]; 200 ppm, 0 = no control): 69%; Test G disease control rating ([4]; 200 ppm, 0 = no control): 93%; Test H disease control rating ([5]; 200 ppm, 0 = no control): 11%; Test I disease control rating ([6]; 200 ppm, 0 = no control): 99%; Test J disease control rating ([7]; 200 ppm, 0 = no control): 99%
COc1cc(OC)cc(-n2c(Br)nc(C)c2-c2c(F)cc(OC)cc2F)c1 [compound 657]	–	–	–	–	–	–	–	Test C disease control rating ([1]; 40 ppm (marked *)): 99* %; Test D disease control rating ([2]; 40 ppm (marked *)): 99* %; Test F disease control rating ([3]; 40 ppm (marked *)): 99* %; Test G disease control rating ([4]; 40 ppm (marked *)): 99* %; Test H disease control rating ([5]; 40 ppm (marked *)): 100* %; Test I disease control rating ([6]; 40 ppm (marked *)): 100* %; Test J disease control rating ([7]; 40 ppm (marked *)): 96* %
Fc1cc(F)c(-c2c(Cl)nc(Cl)n2-c2ccc(OC(F)F)cc2)c(F)c1 [compound 598]	100%	100%	100%	99%	99%	100%	100%	–
Cc1nc(Cl)c(-c2c(F)ccc(F)c2F)n1-c1ccc(Cl)c(Cl)c1 [compound 480]	100%	100%	95%	96%	0%	99%	100%	–
Cc1ccc(-n2c(Cl)nc(C)c2-c2c(F)ccc(F)c2F)cc1 [compound 496]	–	–	–	–	–	–	–	Test C disease control rating ([1]; 40 ppm (marked *)): 93* %; Test D disease control rating ([2]; 40 ppm (marked *)): 99* %; Test F disease control rating ([3]; 40 ppm (marked *)): 0* %; Test G disease control rating ([4]; 40 ppm (marked *)): 6* %; Test H disease control rating ([5]; 40 ppm (marked *)): 0* %; Test I disease control rating ([6]; 40 ppm (marked *)): 0* %; Test J disease control rating ([7]; 40 ppm (marked *)): 97* %
COc1cc(Cl)c(-c2c(Cl)nc(Br)n2-c2ccc(Cl)c(F)c2)c(Cl)c1 [compound 574]	100%	0%	60%	100%	0%	98%	97%	–
COc1ccc(F)c(-c2c(Cl)ncn2-c2ccc(C)c(F)c2)c1F [compound 520]	100%	100%	0%	97%	0%	99%	100%	–
Fc1cc(-n2c(Cl)nc(Cl)c2-c2cnc3ccccc3c2)ccc1Cl [compound 436]	87%	98%	0%	81%	0%	0%	0%	–
Cc1nc(C)n(-c2ccc(F)cc2Cl)c1-c1ccc(Cl)cc1 [compound 307]	100%	99%	0%	97%	11%	97%	99%	–
COc1ccc(F)c(-c2c(Cl)nc(Br)n2-c2ccc(C#N)cc2)c1F [compound 596]	94%	73%	0%	98%	0%	74%	97%	–
COc1cc(F)c(-c2c(Cl)nc(Cl)n2-c2ccc(C)c(C#N)c2)c(F)c1 [compound 572]	–	–	–	–	–	–	–	Test C disease control rating ([1]; 40 ppm (marked *)): 100* %; Test D disease control rating ([2]; 40 ppm (marked *)): 99* %; Test F disease control rating ([3]; 40 ppm (marked *)): 92* %; Test G disease control rating ([4]; 40 ppm (marked *)): 95* %; Test H disease control rating ([5]; 40 ppm (marked *)): 0* %; Test I disease control rating ([6]; 40 ppm (marked *)): 99* %; Test J disease control rating ([7]; 40 ppm (marked *)): 71* %
COc1cc(F)c(-c2c(Cl)nc(CO)n2-c2ccc(F)cc2)c(F)c1 [Compound 298, 4-chloro-5-(2,6-difluoro-4-methoxyphenyl)-1-(4-fluorophenyl)-1H-imidazole-2-methanol]	–	–	–	–	–	–	–	pest or weed control at 200 ppm [1, 8]: 100%; pest or weed control at 200 ppm [2, 8]: 100%; pest or weed control at 200 ppm [3, 8]: 0%; pest or weed control at 200 ppm [4, 8]: 96%; pest or weed control at 200 ppm [5, 8]: 0%; pest or weed control at 200 ppm [6, 8]: 98%; pest or weed control at 200 ppm [7, 8]: 0%
COc1cc(F)c(-n2c(Br)nc(Cl)c2-c2ccc(Cl)cc2)c(F)c1 [compound 373]	–	–	–	–	–	–	–	Test C disease control rating [1, 9]: 99* %; Test D disease control rating [2, 9]: 98* %; Test F disease control rating [3, 9]: 60* %; Test G disease control rating [4, 9]: 92* %; Test H disease control rating [5, 9]: 0* %; Test I disease control rating [6, 9]: 95* %; Test J disease control rating [7, 9]: 99* %
Cc1nc(Cl)n(-c2ccc(F)cc2)c1-c1c(F)cc(F)cc1F [compound 492]	–	–	–	–	–	–	–	Test C disease control rating ([1]; 40 ppm (marked *)): 94* %; Test D disease control rating ([2]; 40 ppm (marked *)): 100* %; Test F disease control rating ([3]; 40 ppm (marked *)): 0* %; Test G disease control rating ([4]; 40 ppm (marked *)): 82* %; Test H disease control rating ([5]; 40 ppm (marked *)): 0* %; Test I disease control rating ([6]; 40 ppm (marked *)): 0* %; Test J disease control rating ([7]; 40 ppm (marked *)): 0* %
